Data set [1] in a line: Drug uptake in Danish Landrace pig cerebellum at 124 MBq, iv after 90 mins by PET analysis. The data set is classed as ADME, organism-based, Sus scrofa. Particulars: in vivo, 1.5 h; call rule not given here.
Data set [2] in a line: Drug uptake in Danish Landrace pig striatum at 124 MBq, iv after 90 mins by PET analysis. Particulars: in vivo, 1.5 h. The data set is classed as ADME, organism-based, Sus scrofa.
A short description of data set [3]: Plasma protein binding in pig plasma at 5 MBq after 2.5 hrs by equilibrium dialysis chamber method. The data set is classed as ADME, cell-free, Sus scrofa. Particulars: read-out: PPB (converted). Background: Equilibrium dialysis compares concentrations on both sides of a semipermeable membrane.
The nature of data set [4]: Drug uptake in Danish Landrace pig thalamus at 124 MBq, iv after 90 mins by PET analysis. The data set is classed as ADME, organism-based, Sus scrofa. The conditions noted are these: in vivo, 1.5 h.
The nature of data set [5]: Drug uptake in Danish Landrace pig hippocampus at 124 MBq, iv after 90 mins by PET analysis. The data set is classed as ADME, organism-based, Sus scrofa. Particulars: in vivo, 1.5 h.
The nature of data set [6]: Drug uptake in Danish Landrace pig cortex at 124 MBq, iv after 90 mins by PET analysis. The conditions noted are these: in vivo, 1.5 h. It is filed as ADME, organism-based, Sus scrofa.
Data set [7] in a line: Drug uptake in Danish Landrace pig brain at 124 MBq, iv after 60 mins by PET analysis. The data set is classed as ADME, organism-based, Sus scrofa. Particulars: in vivo, 1 h.

Here are results for one compound from ChEMBL document CHEMBL3259526, “(11)C-labeling and preliminary evaluation of vortioxetine as a PET radioligand” (Bioorg Med Chem Lett, 2014).

Regarding `Cc1ccc(Sc2ccccc2N2CCNCC2)c([11CH3])c1`, the Drug uptake result in data set [1], in data set [2], in data set [4], in data set [5], in data set [6] and in data set [7] was “Active” throughout. Also, in data set [3], the fraction unbound at 2.5 h, 5 MBq is 0.02.
